Experimental data reported in patent publication US20230286958A1, “PLASMA KALLIKREIN INHIBITORS” (Merck Sharp & Dohme LLC, priority 2020, published 2023).

Tests used:
Human plasma kallikrein = Human plasma kallikrein (Homo sapiens (Human), UniProt P03952); assay: Kallikrein Assay (fluorogenic substrate Acetyl-K-P-R-AFC); format: biochemical; conditions: Plasma Kallikrein (PKal)
Experimental: (§1) The effectiveness of a compound of the present invention as an inhibitor of Kallikrein can be determined using a relevant purified serine protease, and an appropriate synthetic substrate. The rate of hydrolysis of the chromogenic or fluorogenic substrate by the relevant serine protease was measured both in the absence and presence of compounds of the present invention. Assays were conducted at room temperature or at 37° C. […] A decrease in the rate of fluorescence change in the presence of inhibitor is indicative of enzyme inhibition. Such methods are known to one skilled in the art. The results of this assay are expressed as the half-maximal inhibitory concentrations (IC50), or the inhibitory constant, Ki.
Kallikrein determinations were made in 50 mM HEPES buffer at pH 7.4 containing 150 mM NaCl, 5 mM CaC12, and 0.1% PEG 8000 (polyethylene glycol; Fisher Scientific). Determinations were made using purified Human plasma kallikrein at a final concentration of 0.5 nM (Enzyme Research Laboratories) and the synthetic substrate, Acetyl-K-P-R-AFC (Sigma # C6608) at a concentration of […].
Times required to achieve equilibration between enzyme and inhibitor were determined in control experiments. […] IC50 was determined by inflection point from a four parameter logistic curve fit. Ki was calculated using the Cheng Prusoff equation, Ki = IC50/(1+([S]/Km)).

human Factor XIa = human Factor XIa (Homo sapiens (Human), UniProt P03951); assay: Factor XIa Assay (fluorogenic substrate GPR-AFC); format: biochemical; conditions: Factor XIa (FXIa)
Experimental: as §1, with “Coagulation Factor XIa” for “Kallikrein”
Compounds were pre-incubated for 30 minutes at 25° C. with human (0.04 nM) Factor XIa in 50 mM HEPES buffer with 150 mM sodium chloride, 5 mM calcium chloride, 0.1% PEG 8000, pH 7.4. […] The % inhibition for each data point was calculated from the data and analyzed using the log (inhibitor) vs. response four parameters equation to determine the half-maximal inhibitory concentrations (IC50). The IC50 were converted to equilibrium inhibitory constants (Ki) using the Cheng-Prusoff equation.

Chain of Human plasma kallikrein (P03952 391-638): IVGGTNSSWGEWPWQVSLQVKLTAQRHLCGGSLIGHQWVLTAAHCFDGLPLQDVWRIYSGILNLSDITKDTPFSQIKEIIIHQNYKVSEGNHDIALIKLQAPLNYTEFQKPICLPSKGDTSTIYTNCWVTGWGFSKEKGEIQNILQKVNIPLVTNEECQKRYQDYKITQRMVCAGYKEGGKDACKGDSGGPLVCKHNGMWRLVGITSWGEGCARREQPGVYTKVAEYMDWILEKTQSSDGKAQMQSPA
Chain of Human plasma kallikrein (P03952 20-390 partner): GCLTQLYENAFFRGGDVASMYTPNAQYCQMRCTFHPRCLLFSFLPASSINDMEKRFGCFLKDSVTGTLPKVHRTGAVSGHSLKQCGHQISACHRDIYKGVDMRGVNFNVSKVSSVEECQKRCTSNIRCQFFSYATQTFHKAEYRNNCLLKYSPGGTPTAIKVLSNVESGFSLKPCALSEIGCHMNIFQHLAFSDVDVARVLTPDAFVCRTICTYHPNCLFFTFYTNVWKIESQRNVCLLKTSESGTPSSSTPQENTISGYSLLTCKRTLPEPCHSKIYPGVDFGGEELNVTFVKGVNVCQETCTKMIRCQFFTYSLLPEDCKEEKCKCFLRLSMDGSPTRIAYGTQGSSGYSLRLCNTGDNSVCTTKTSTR
Chain of human Factor XIa (P03951 388-625 limits assumed): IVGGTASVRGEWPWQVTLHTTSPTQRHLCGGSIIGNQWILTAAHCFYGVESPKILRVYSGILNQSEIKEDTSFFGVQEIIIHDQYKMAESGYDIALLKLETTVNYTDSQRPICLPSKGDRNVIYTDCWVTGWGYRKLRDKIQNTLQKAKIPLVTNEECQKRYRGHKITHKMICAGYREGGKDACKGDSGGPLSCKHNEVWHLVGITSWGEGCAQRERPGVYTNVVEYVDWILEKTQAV
Chain of human Factor XIa (P03951 19-387 partner limits assumed): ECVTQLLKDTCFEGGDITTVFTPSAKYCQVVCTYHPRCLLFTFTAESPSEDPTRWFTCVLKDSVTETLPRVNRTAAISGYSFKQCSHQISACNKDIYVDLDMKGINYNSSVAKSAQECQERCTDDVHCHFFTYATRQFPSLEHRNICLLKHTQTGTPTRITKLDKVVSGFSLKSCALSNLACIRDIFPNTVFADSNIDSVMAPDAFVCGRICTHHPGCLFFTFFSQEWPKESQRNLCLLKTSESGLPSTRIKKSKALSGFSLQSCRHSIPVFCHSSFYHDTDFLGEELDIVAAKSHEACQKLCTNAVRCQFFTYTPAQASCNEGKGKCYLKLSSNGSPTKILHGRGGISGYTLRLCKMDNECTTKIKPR

| SMILES | IC50 (Human plasma kallikrein) [nM] | IC50 (human Factor XIa) [nM] |
| --- | --- | --- |
| CCc1nc(C(C)n2cc(NC(=O)c3cncc(-c4c(C(F)F)ccc(Cl)c4F)n3)cn2)cnc1N1C[C@H]2C[C@H]2C1=O (single isomer, unassigned) [Example 55, 6-(3-Chloro-6-(difluoromethyl)-2-fluorophenyl)-N-(1-((S or R)-1-(6-ethyl-5-((1R,5S)-2-oxo-3-azabicyclo[3.1.0]hexan-3-yl)pyrazin-2-yl)ethyl)-1H-pyrazol-4-yl)pyrazine-2-carboxamide] | 5.8 | 5360 |
| CCc1nc(C(C)n2cc(NC(=O)c3cncc(-c4c(C(F)F)ccc(Cl)c4F)n3)cn2)cnc1N1C[C@H]2C[C@H]2C1=O (single isomer, unassigned) [Example 56, 6-(3-Chloro-6-(difluoromethyl)-2-fluorophenyl)-N-(1-((R or S)-1-(6-ethyl-5-((1R,5S)-2-oxo-3-azabicyclo[3.1.0]hexan-3-yl)pyrazin-2-yl)ethyl)-1H-pyrazol-4-yl)pyrazine-2-carboxamide] | 1.5 | > 10000 |
| Cc1nc(C(C)n2cc(NC(=O)c3nc(-c4c(C(F)F)ccc(Cl)c4F)cnc3C)cn2)ccc1N1C[C@H]2C[C@H]2C1=O (single isomer, unassigned) [Example 58, 6-(3-Chloro-6-(difluoromethyl)-2-fluorophenyl)-3-methyl-N-(1-((S or R)-1-(6-methyl-5-((1R,5S)-2-oxo-3-azabicyclo[3.1.0]hexan-3-yl)pyridin-2-yl)ethyl)-1H-pyrazol-4-yl)pyrazine-2-carboxamide] | 0.6 | > 10000 |
| Cc1nc(C(C)n2cc(NC(=O)c3nc(-c4c(C(F)F)ccc(Cl)c4F)cnc3C)cn2)ccc1N1C[C@H]2C[C@H]2C1=O (single isomer, unassigned) [Example 59, 6-(3-Chloro-6-(difluoromethyl)-2-fluorophenyl)-3-methyl-N-(1-((R or S)-1-(6-methyl-5-((1R,5S)-2-oxo-3-azabicyclo[3.1.0]hexan-3-yl)pyridin-2-yl)ethyl)-1H-pyrazol-4-yl)pyrazine-2-carboxamide] | 3.2 | > 10000 |
| Cc1nc(C(C)n2cc(NC(=O)c3cncc(-c4c(C(F)F)ccc(Cl)c4F)n3)cn2)ccc1N1C[C@H]2C[C@H]2C1=O (single isomer, unassigned) [Example 60, 6-(3-Chloro-6-(difluoromethyl)-2-fluorophenyl)-N-(1-((S or R)-1-(6-methyl-5-((1R,5S)-2-oxo-3-azabicyclo[3.1.0]hexan-3-yl)pyridin-2-yl)ethyl)-1H-pyrazol-4-yl)pyrazine-2-carboxamide] | 5.5 | > 10000 |
| Cc1nc(C(C)n2cc(NC(=O)c3cncc(-c4c(C(F)F)ccc(Cl)c4F)n3)cn2)ccc1N1C[C@H]2C[C@H]2C1=O (single isomer, unassigned) [Example 61, 6-(3-Chloro-6-(difluoromethyl)-2-fluorophenyl)-N-(1-((R or S)-1-(6-methyl-5-((1R,5S)-2-oxo-3-azabicyclo[3.1.0]hexan-3-yl)pyridin-2-yl)ethyl)-1H-pyrazol-4-yl)pyrazine-2-carboxamide] | 0.7 | > 10000 |
| Cc1cc(N2C[C@H]3C[C@H]3C2=O)cnc1C(C)n1cc(NC(=O)c2cncc(-c3c(C(F)F)ccc(Cl)c3F)n2)cn1 (single isomer, unassigned) [Example 62, 6-(3-Chloro-6-(difluoromethyl)-2-fluorophenyl)-N-(1-((S or R)-1-(3-methyl-5-((1R,5S)-2-oxo-3-azabicyclo[3.1.0]hexan-3-yl)pyridin-2-yl)ethyl)-1H-pyrazol-4-yl)pyrazine-2-carboxamide] | 4.2 | 7630 |
| Cc1cc(C(C)n2cc(NC(=O)c3cncc(-c4c(C(F)F)ccc(Cl)c4F)n3)cn2)cnc1N1C[C@H]2C[C@H]2C1=O (single isomer, unassigned) [Example 66, 6-(3-Chloro-6-(difluoromethyl)-2-fluorophenyl)-N-(1-((S or R)-1-(5-methyl-6-((1R,5S)-2-oxo-3-azabicyclo[3.1.0]hexan-3-yl)pyridin-3-yl)ethyl)-1H-pyrazol-4-yl)pyrazine-2-carboxamide] | 0.6 | 1630 |

The next lines start with the values.

| IC50 (Human plasma kallikrein) [nM] | IC50 (human Factor XIa) [nM] | SMILES |
| --- | --- | --- |
| 2.1 | 389 | Cc1cc(C(C)n2cc(NC(=O)c3cncc(-c4c(C(F)F)ccc(Cl)c4F)n3)cn2)cnc1N1C[C@H]2C[C@H]2C1=O (single isomer, unassigned) [Example 67, 6-(3-Chloro-6-(difluoromethyl)-2-fluorophenyl)-N-(1-((R or S)-1-(5-methyl-6-((1R,5S)-2-oxo-3-azabicyclo[3.1.0]hexan-3-yl)pyridin-3-yl)ethyl)-1H-pyrazol-4-yl)pyrazine-2-carboxamide] |
| 1.1 | 5250 | Cc1cc(N2C[C@H]3C[C@H]3C2=O)ncc1C(C)n1cc(NC(=O)c2cncc(-c3c(C(F)F)ccc(Cl)c3F)n2)cn1 (single isomer, unassigned) [Example 68, 6-(3-Chloro-6-(difluoromethyl)-2-fluorophenyl)-N-(1-((S or R)-1-(4-methyl-6-((1R,5S)-2-oxo-3-azabicyclo[3.1.0]hexan-3-yl)pyridin-3-yl)ethyl)-1H-pyrazol-4-yl)pyrazine-2-carboxamide] |
| 18.6 | 7680 | CC(c1cnc(N2CC3CC3C2=O)nc1)n1cc(NC(=O)c2cncc(-c3c(C(F)(F)F)ccc(Cl)c3F)n2)cn1 (single isomer, unassigned) [Example 70, 6-(3-Chloro-2-fluoro-6-(trifluoromethyl)phenyl)-N-(1-((S orR)-1-(2-((1R,5S or 1S,5R)-2-oxo-3-azabicyclo[3.1.0]hexan-3-yl)pyrimidin-5-yl)ethyl)-1H-pyrazol-4-yl)pyrazine-2-carboxamide] |
| 39 | 4300 | CC(c1cnc(N2CC3CC3C2=O)nc1)n1cc(NC(=O)c2cncc(-c3c(OC(F)F)ccc(Cl)c3F)n2)cn1 (single isomer, unassigned) [Example 71, 6-(3-Chloro-6-(difluoromethoxy)-2-fluorophenyl)-N-(1-((S or R)-1-(2-((1R,5S or 1S,5R)-2-oxo-3-azabicyclo[3.1.0]hexan-3-yl)pyrimidin-5-yl)ethyl)-1H-pyrazol-4-yl)pyrazine-2-carboxamide] |
| 3.7 | 2740 | CC(c1cnc(N2CC3CC3C2=O)nc1)n1cc(NC(=O)c2cncc(-c3c(OC(F)F)ccc(Cl)c3F)n2)cn1 (single isomer, unassigned) [Example 72, 6-(3-Chloro-6-(difluoromethoxy)-2-fluorophenyl)-N-(1-((R or S)-1-(2-((1R,5S or 1S,5R)-2-oxo-3-azabicyclo[3.1.0]hexan-3-yl)pyrimidin-5-yl)ethyl)-1H-pyrazol-4-yl)pyrazine-2-carboxamide] |
| 23.1 | 2270 | CC(c1cnc(N2CC3CC3C2=O)nc1)n1cc(NC(=O)c2cncc(-c3c(OC(F)F)ccc(Cl)c3F)n2)cn1 (single isomer, unassigned) [Example 73, 6-(3-Chloro-6-(difluoromethoxy)-2-fluorophenyl)-N-(1-((S or R)-1-(2-((1S,5R or 1R,5S)-2-oxo-3-azabicyclo[3.1.0]hexan-3-yl)pyrimidin-5-yl)ethyl)-1H-pyrazol-4-yl)pyrazine-2-carboxamide] |
